Results taken from patent publication US20230295234A1, “ANTIMICROBIAL PEPTIDOMIMETICS” (SPEXIS AG, priority 2020, published 2023).
Bridge positions count the residues as written; N and C are the ends. Square brackets hold non-standard residues; d marks the D form. Peptide text beside a SMILES is read from it. * marks the point of attachment. Val(Nα-amidino) = CC(C)[C@H](NC(=N)N)C(=O)*; Pro(4R-NH2) = N[C@H]1CN[C@H](C(=O)O)C1; Hyp = O=C(O)[C@@H]1C[C@@H](O)CN1; aThr = C[C@H](O)[C@H](N)C(=O)O; Pen = CC(C)(S)[C@H](N)C(=O)O; dDab = NCC[C@@H](N)C(=O)O; Dab = NCC[C@H](N)C(=O)O

Key:
[1] = system: Escherichia coli ATCC 25922; settings: ATCC 25922
Procedure, shortened: (§1)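 Standardized inocula (0.5 McFarland in saline, then diluted in MHII broth to approximately 5×10^5 CFU/mL) were exposed to two-fold dilution series of each peptide in the presence of polysorbate 80 (0.002% final).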

[2] = system: Escherichia coli MCR-1 Af 45; settings: Mueller-Hinton broth II, 18-20 hours at 35° C.
Procedure, shortened: as §1

[3] = system: Klebsiella pneumoniae SSI3010; settings: SSI3010
Procedure, shortened: as §1

[4] = system: human red blood cells (hRBC); test: Hemolysis of human red blood cells; type: cell-based; settings: red cells of human, 1 h
Procedure, shortened: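 Percent hemolysis is OD540 of peptide-treated supernatant relative to water-lysed cells. Each peptide was tested at 200 μg/mL against 20% (v/v) washed human erythrocytes. Incubation was 1 h at 37 °C, 300 rpm.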

Compound | Escherichia coli ATCC 25922 MIC [1] [µg/mL] | Escherichia coli MCR-1 Af 45 MIC [2] [µg/mL] | Klebsiella pneumoniae SSI3010 MIC [3] [µg/mL] | Hemolysis at 0.2 g/L [4] [%]
CC[C@H](C)[C@H](NC(=O)[C@@H]1C[C@@H](O)CN1C(=O)[C@@H](NC(=N)N)C(C)C)C(=O)N[C@@H](Cc1ccc(O)cc1)C(=O)N[C@@H](Cc1ccc(O)cc1)C(=O)N[C@@H]1C(=O)N[C@@H](CC(N)=O)C(=O)N[C@@H](CCCNC(=N)N)C(=O)N[C@@H](CCN)C(=O)N[C@@H]([C@@H](C)O)C(=O)N[C@H](CCN)C(=O)N[C@@H](CCCCN)C(=O)N[C@H](C(=O)N[C@@H](CCC(N)=O)C(=O)N[C@@H](CCCNC(=N)N)C(=O)N[C@@H](Cc2ccc(O)cc2)C(=O)O)CSSC1(C)C [Example 192] (HELM PEPTIDE1{[CC(C)[C@H](NC(=N)N)C(=O)[*:2]].[Hyp].I.Y.Y.[Pen].N.R.[Dab].T.[NCC[C@@H](N[*:1])C(=O)[*:2]].K.C.Q.R.Y}$PEPTIDE1,PEPTIDE1,6:R3-13:R3$$$V2.0) | 0.25 | 0.25 | 0.25 | 0
CC[C@H](C)[C@H](NC(=O)[C@@H]1C[C@@H](O)CN1C(=O)[C@@H](NC(=N)N)C(C)C)C(=O)N[C@H](C(=O)N[C@@H](Cc1ccc(O)cc1)C(=O)N[C@@H]1C(=O)N[C@@H](CCC(=O)O)C(=O)N[C@@H](CCCNC(=N)N)C(=O)N[C@@H](CCN)C(=O)N[C@@H]([C@@H](C)O)C(=O)N[C@H](CCN)C(=O)N[C@@H](CCCCN)C(=O)N[C@H](C(=O)N[C@@H](CCN)C(=O)N[C@@H](CCCNC(=N)N)C(=O)N[C@@H](Cc2ccc(O)cc2)C(=O)O)CSSC1(C)C)[C@@H](C)O [Example 193] (HELM PEPTIDE1{[CC(C)[C@H](NC(=N)N)C(=O)[*:2]].[Hyp].I.T.Y.[Pen].E.R.[Dab].T.[NCC[C@@H](N[*:1])C(=O)[*:2]].K.C.[Dab].R.Y}$PEPTIDE1,PEPTIDE1,6:R3-13:R3$$$V2.0) | 0.25 | 0.25 | 0.5 | 0
CC[C@H](C)[C@H](NC(=O)[C@@H]1C[C@@H](O)CN1C(=O)[C@@H](NC(=N)N)C(C)C)C(=O)N[C@H](C(=O)N[C@@H](Cc1ccc(O)cc1)C(=O)N[C@@H]1C(=O)N[C@@H](Cc2c[nH]cn2)C(=O)N[C@@H](CCCNC(=N)N)C(=O)N[C@@H](CCN)C(=O)N[C@@H]([C@@H](C)O)C(=O)N[C@H](CCN)C(=O)N[C@@H](CCCCN)C(=O)N[C@H](C(=O)N[C@@H](CCN)C(=O)N[C@@H](CCCNC(=N)N)C(=O)N[C@@H](Cc2ccc(O)cc2)C(=O)O)CSSC1(C)C)[C@@H](C)O [Example 194] (HELM PEPTIDE1{[CC(C)[C@H](NC(=N)N)C(=O)[*:2]].[Hyp].I.T.Y.[Pen].H.R.[Dab].T.[NCC[C@@H](N[*:1])C(=O)[*:2]].K.C.[Dab].R.Y}$PEPTIDE1,PEPTIDE1,6:R3-13:R3$$$V2.0) | 0.25 | 0.125 | 0.25 | 0
CC[C@H](C)[C@H](NC(=O)[C@@H]1C[C@@H](O)CN1C(=O)[C@@H](NC(=N)N)C(C)C)C(=O)N[C@H](C(=O)N[C@@H](Cc1ccc(O)cc1)C(=O)N[C@@H]1C(=O)N[C@@H](CC(N)=O)C(=O)N[C@@H](CCCNC(=N)N)C(=O)N[C@@H](CCN)C(=O)N[C@@H]([C@@H](C)O)C(=O)N[C@H](CCN)C(=O)N[C@@H](CCN)C(=O)N[C@H](C(=O)N[C@@H](CCN)C(=O)N[C@@H](CCCNC(=N)N)C(=O)N[C@@H](Cc2ccc(O)cc2)C(=O)O)CSSC1(C)C)[C@@H](C)O [Example 195] (HELM PEPTIDE1{[CC(C)[C@H](NC(=N)N)C(=O)[*:2]].[Hyp].I.T.Y.[Pen].N.R.[Dab].T.[NCC[C@@H](N[*:1])C(=O)[*:2]].[Dab].C.[Dab].R.Y}$PEPTIDE1,PEPTIDE1,6:R3-13:R3$$$V2.0) | 0.25 | 0.0625 | 0.125 | 0
CC[C@H](C)[C@H](NC(=O)[C@@H]1C[C@@H](O)CN1C(=O)[C@@H](NC(=N)N)C(C)C)C(=O)N[C@H](C(=O)N[C@@H](Cc1ccc(O)cc1)C(=O)N[C@@H]1C(=O)N[C@@H](CC(N)=O)C(=O)N[C@@H](CCCNC(=N)N)C(=O)N[C@@H](CCN)C(=O)N[C@@H](CO)C(=O)N[C@H](CCN)C(=O)N[C@@H](CCCCN)C(=O)N[C@H](C(=O)N[C@@H](CCN)C(=O)N[C@@H](CCCNC(=N)N)C(=O)N[C@@H](Cc2ccc(O)cc2)C(=O)O)CSSC1(C)C)[C@@H](C)O [Example 196] (HELM PEPTIDE1{[CC(C)[C@H](NC(=N)N)C(=O)[*:2]].[Hyp].I.T.Y.[Pen].N.R.[Dab].S.[NCC[C@@H](N[*:1])C(=O)[*:2]].K.C.[Dab].R.Y}$PEPTIDE1,PEPTIDE1,6:R3-13:R3$$$V2.0) | 0.125 | 0.0625 | 0.125 | 0
CC[C@H](C)[C@H](NC(=O)[C@@H]1C[C@@H](O)CN1C(=O)[C@@H](NC(=N)N)C(C)C)C(=O)N[C@H](C(=O)N[C@@H](Cc1ccc(O)cc1)C(=O)N[C@@H]1C(=O)N[C@@H](CC(N)=O)C(=O)N[C@@H](CCCNC(=N)N)C(=O)N[C@@H](CCN)C(=O)N[C@@H](CO)C(=O)N[C@H](CCN)C(=O)N[C@@H](CCCCN)C(=O)N[C@H](C(=O)N[C@@H](CCN)C(=O)N[C@@H](CCN)C(=O)N[C@@H](Cc2ccc(O)cc2)C(=O)O)CSSC1(C)C)[C@@H](C)O [Example 197] (HELM PEPTIDE1{[CC(C)[C@H](NC(=N)N)C(=O)[*:2]].[Hyp].I.T.Y.[Pen].N.R.[Dab].S.[NCC[C@@H](N[*:1])C(=O)[*:2]].K.C.[Dab].[Dab].Y}$PEPTIDE1,PEPTIDE1,6:R3-13:R3$$$V2.0) | 0.0625 | 0.0625 | 0.125 | 0
CC[C@H](C)[C@H](NC(=O)[C@@H]1C[C@@H](O)CN1C(=O)[C@@H](NC(=N)N)C(C)C)C(=O)N[C@H](C(=O)N[C@@H](Cc1ccc(O)cc1)C(=O)N[C@@H]1C(=O)N[C@@H](CC(N)=O)C(=O)N[C@@H](CCCNC(=N)N)C(=O)N[C@@H](CCN)C(=O)N[C@@H](CO)C(=O)N[C@H](CCN)C(=O)N[C@@H](CCCCN)C(=O)N[C@H](C(=O)N[C@@H](CCN)C(=O)N[C@@H](CCCN)C(=O)N[C@@H](Cc2ccc(O)cc2)C(=O)O)CSSC1(C)C)[C@@H](C)O [Example 198] (HELM PEPTIDE1{[CC(C)[C@H](NC(=N)N)C(=O)[*:2]].[Hyp].I.T.Y.[Pen].N.R.[Dab].S.[NCC[C@@H](N[*:1])C(=O)[*:2]].K.C.[Dab].[Orn].Y}$PEPTIDE1,PEPTIDE1,6:R3-13:R3$$$V2.0) | 0.125 | 0.0625 | 0.125 | 0
CC[C@H](C)[C@H](NC(=O)[C@@H]1C[C@@H](N)CN1C(=O)[C@@H](NC(=N)N)C(C)C)C(=O)N[C@H](C(=O)N[C@@H](Cc1ccc(O)cc1)C(=O)N[C@@H]1C(=O)N[C@@H](CC(N)=O)C(=O)N[C@@H](CCCNC(=N)N)C(=O)N[C@@H](CCN)C(=O)N[C@@H]([C@@H](C)O)C(=O)N[C@H](CCN)C(=O)N[C@@H](CCCCN)C(=O)N[C@H](C(=O)N[C@@H](Cc2ccc(O)cc2)C(=O)N[C@@H](CCCNC(=N)N)C(=O)N[C@@H](Cc2ccc(O)cc2)C(=O)O)CSSC1(C)C)[C@@H](C)O [Example 199] ({Val(Nα-amidino)}-[Pro(4R-NH2)]ITY[Pen]NR[Dab]T[dDab]KCYRY-OH; disulfide 5-12) | 0.25 | 0.125 | 0.25 | 0
CC[C@H](C)[C@H](NC(=O)[C@@H](NC(=O)[C@@H]1C[C@@H](N)CN1C(=O)[C@@H](NC(=N)N)C(C)C)[C@@H](C)CC)C(=O)N[C@@H](Cc1ccc(O)cc1)C(=O)N[C@@H]1C(=O)N[C@@H](CC(N)=O)C(=O)N[C@@H](CCCNC(=N)N)C(=O)N[C@@H](CCN)C(=O)N[C@@H]([C@@H](C)O)C(=O)N[C@H](CCN)C(=O)N[C@@H](CCCCN)C(=O)N[C@H](C(=O)N[C@@H](Cc2ccc(O)cc2)C(=O)N[C@@H](CCCNC(=N)N)C(=O)N[C@@H](Cc2ccc(O)cc2)C(=O)O)CSSC1(C)C [Example 200] ({Val(Nα-amidino)}-[Pro(4R-NH2)]IIY[Pen]NR[Dab]T[dDab]KCYRY-OH; disulfide 5-12) | 0.5 | 0.125 | 0.125 | 0
CC[C@H](C)[C@H](NC(=O)[C@@H]1C[C@@H](O)CN1C(=O)[C@@H](NC(=N)N)C(C)C)C(=O)N[C@H](C(=O)N[C@@H](Cc1ccc(O)cc1)C(=O)N[C@@H]1C(=O)N[C@@H](CC(N)=O)C(=O)N[C@@H](CCCNC(=N)N)C(=O)N[C@@H](CCN)C(=O)N[C@@H]([C@@H](C)O)C(=O)N[C@H](CCN)C(=O)N[C@@H](CCCCN)C(=O)N[C@H](C(=O)N[C@@H](Cc2ccc(O)cc2)C(=O)N[C@@H](CCCNC(=N)N)C(=O)N[C@@H](Cc2ccc(O)cc2)C(=O)O)CSSC1(C)C)[C@H](C)O [Example 201] ({Val(Nα-amidino)}-[Hyp]I[aThr]Y[Pen]NR[Dab]T[dDab]KCYRY-OH; disulfide 5-12) | 0.5 | 0.25 | 0.5 | 0
